Assay results as given in ChEMBL document CHEMBL5380869, “Discovery of an Oral, Beyond-Rule-of-Five Mcl-1 Protein-Protein Interaction Modulator with the Potential of Treating Hematological Malignancies” (J Med Chem, 2023).
≈ marks a conversion by molar mass, not a printed value. Blank lines part the entries; values can stand above or below the compound they belong to.

Experiments:
[1] = Inhibition of terbium-labelled Mcl-1 (unknown origin)/Bim BH3 peptide (H3N-(C/Cy5Mal)-WIAQELRRIGDEFN-OH) (unknown origin) interaction assessed as displacement of Cy5-labeled Bim BH3 peptide by TR-HTRF assay
MOLP-8 = assay: Induction apoptosis in human MOLP8 cells assessed as cell killing measured after 2 hrs by Caspase-Glo 3/7 Assay; type: functional, cell-based; details: MOLP-8, 2 h
[2] = Thermodynamic (equilibrium) solubility of the compound measured after 3 days agitation in pH 2 buffer by LC-MS/MS analysis; type: physicochemical; details: time 3 day, read-out: Therm_solubility
[3] = Thermodynamic (equilibrium) solubility of the compound measured after 3 days agitation in pH 7 buffer by LC-MS/MS analysis; type: physicochemical; details: time 3 day, read-out: Therm_solubility
[4] = Lipophilicity, CHI logD of compound at pH 7.4 by UPLC-TOF analysis; type: physicochemical; details: buffer
[5] = Intrinsic clearance in human liver microsomes measured upto 60 mins by LC-MS/MS analysis; type: ADME, Microsome; details: read-out: CLH
[6] = Intrinsic clearance in mouse liver microsomes measured upto 60 mins by LC-MS/MS analysis; type: ADME, Microsome; details: read-out: CLH
[7] = Lipophilicity, CHI logD of compound at pH 2.6 by UPLC-TOF analysis; type: physicochemical; details: buffer
[8] = Lipophilicity, CHI logP of compound at pH 7.4 by UPLC-TOF analysis; type: physicochemical; details: buffer, read-out: logP
[9] = Cardiotoxicity risk in human iPSC-CM assessed as calcium transients at 1 uM by CTCM assay; type: toxicity, cell-based
[10] = Cardiotoxicity risk in human iPSC-CM assessed as calcium transients at 10 uM by CTCM assay; type: toxicity, cell-based
[11] = Cardiotoxicity risk in human iPSC-CM assessed as calcium transients at 3 uM by CTCM assay; type: toxicity, cell-based

Compound: COC[C@H]1/C(C)=C/C[C@H](C)[C@@H](C)S(=O)(=O)NC(=O)c2ccc3c(c2)N(C[C@@H]2CCO[C@H]21)C[C@@]1(CCCc2cc(Cl)ccc21)CO3
- Ki [1]: 0.67 nM
- AC50 (MOLP-8): 1820 nM
- solubility thermodynamic at 72 h [2]: < 0.1 µM
- solubility thermodynamic at 72 h [3]: < 0.1 µM
- chromatographic logD [4]: 3.7
- microsomal CLint [5]: < 7.7 µL/min/mg
- microsomal CLint [6]: 18 µL/min/mg

Compound: C[C@@H]1[C@@H](C)C/C=C(\F)[C@@](O)(CN2CCN3CCCC[C@@H]3C2)[C@@H]2OCC[C@H]2CN2C[C@@]3(CCCc4cc(Cl)ccc43)COc3ccc(cc32)C(=O)NS1(=O)=O
- Ki [1]: 0.22 nM
- AC50 (MOLP-8): 2660 nM
- solubility thermodynamic at 72 h [2]: 95 µM (≈ 74.6 µg/mL)
- solubility thermodynamic at 72 h [3]: < 0.1 µM
- chromatographic logD [7]: 2.5
- microsomal CLint [5]: < 7.7 µL/min/mg
- microsomal CLint [6]: < 7.7 µL/min/mg
- chromatographic logD [8]: 2.9

Compound: C[C@@H]1[C@@H](C)C/C=C/[C@H](OCCN2CCOCC2)[C@@H]2OCC[C@H]2CN2C[C@@]3(CCCc4cc(Cl)ccc43)COc3ccc(cc32)C(=O)NS1(=O)=O
- Ki [1]: 0.23 nM
- AC50 (MOLP-8): 616 nM
- solubility thermodynamic at 72 h [2]: 521 µM (≈ 379 µg/mL)
- solubility thermodynamic at 72 h [3]: 0.4 µM (≈ 0.291 µg/mL)
- chromatographic logD [7]: 2.3
- chromatographic logD [4]: 2.7
- microsomal CLint [5]: 34 µL/min/mg
- microsomal CLint [6]: 14 µL/min/mg
- Activity [9]: Non-Toxic
- Activity [10]: Non-Toxic
- Activity [11]: Non-Toxic

Compound: C/C1=C\C[C@H](C)[C@@H](C)S(=O)(=O)NC(=O)c2ccc3c(c2)N(C[C@@H]2CCO[C@H]2[C@H]1CO)C[C@@]1(CCCc2cc(Cl)ccc21)CO3
- Ki [1]: 0.52 nM
- AC50 (MOLP-8): 752 nM
- solubility thermodynamic at 72 h [2]: < 0.1 µM
- solubility thermodynamic at 72 h [3]: < 0.1 µM
- chromatographic logD [4]: 2.8
- microsomal CLint [5]: < 7.7 µL/min/mg
- microsomal CLint [6]: 27 µL/min/mg

Compound: COc1nn(C)cc1C(=O)N[S@]1(=O)=NC(=O)c2ccc3c(c2)N(C[C@@H]2CCO[C@H]2[C@@H](OC)/C(F)=C/C[C@H](C)C1)C[C@@]1(CCCc2cc(Cl)ccc21)CO3
- Ki [1]: 0.25 nM
- AC50 (MOLP-8): 2420 nM
- solubility thermodynamic at 72 h [2]: < 0.1 µM
- solubility thermodynamic at 72 h [3]: 202 µM (≈ 156 µg/mL)
- chromatographic logD [4]: 3
- microsomal CLint [5]: 16 µL/min/mg
- microsomal CLint [6]: 9.3 µL/min/mg
- Activity [9]: Non-Toxic
- Activity [11]: Non-Toxic

Stronger by Ki [1], values ahead:

- Ki [1]: 0.17 nM
- solubility thermodynamic at 72 h [2]: 480 µM (≈ 444 µg/mL)
- solubility thermodynamic at 72 h [3]: 25 µM (≈ 23.1 µg/mL)
- chromatographic logD [4]: 3
- microsomal CLint [5]: < 7.7 µL/min/mg
- microsomal CLint [6]: < 7.7 µL/min/mg
Compound: COc1nn(C)cc1C(=O)N[S@]1(=O)=NC(=O)c2ccc3c(c2)N(C[C@@H]2CCO[C@H]2[C@](CN2CCN4CCOC[C@@H]4C2)(OC)/C(F)=C/C[C@H](C)C1)C[C@@]1(CCCc2cc(Cl)ccc21)CO3
- AC50 (MOLP-8): 702 nM
- Activity [9]: Non-Toxic
- Activity [10]: Non-Toxic
- Activity [11]: Non-Toxic

- Ki [1]: 0.025 nM
- solubility thermodynamic at 72 h [2]: < 0.1 µM
- solubility thermodynamic at 72 h [3]: 0.6 µM (≈ 0.462 µg/mL)
- chromatographic logD [4]: 3.1
- microsomal CLint [5]: < 7.7 µL/min/mg
- microsomal CLint [6]: 16 µL/min/mg
Compound: COc1nn(C)cc1C(=O)N[S@]1(=O)=NC(=O)c2ccc3c(c2)N(C[C@@H]2CCO[C@H]2[C@H](OC)/C(F)=C/C[C@H](C)C1)C[C@@]1(CCCc2cc(Cl)ccc21)CO3
- AC50 (MOLP-8): 486 nM
- Activity [9]: Non-Toxic
- Activity [10]: Non-Toxic
- Activity [11]: Non-Toxic

- Ki [1]: 0.18 nM
- solubility thermodynamic at 72 h [2]: < 0.1 µM
- solubility thermodynamic at 72 h [3]: < 0.1 µM
- chromatographic logD [4]: 3.6
- microsomal CLint [5]: < 7.7 µL/min/mg
- microsomal CLint [6]: < 7.7 µL/min/mg
Compound: C[C@@H]1[C@@H](C)C/C=C(\F)[C@@](O)(CC(=O)N(C)C)[C@@H]2OCC[C@H]2CN2C[C@@]3(CCCc4cc(Cl)ccc43)COc3ccc(cc32)C(=O)NS1(=O)=O
- AC50 (MOLP-8): 436 nM
- Activity [9]: Non-Toxic
- Activity [11]: Non-Toxic

- Ki [1]: 0.13 nM
- solubility thermodynamic at 72 h [2]: 516 µM (≈ 414 µg/mL)
- solubility thermodynamic at 72 h [3]: < 0.1 µM
- chromatographic logD [7]: 3.4
- microsomal CLint [5]: < 7.7 µL/min/mg
- microsomal CLint [6]: 22 µL/min/mg
- chromatographic logD [8]: 3.3
Compound: CO[C@@]1(CN2CCN3CCOC[C@@H]3C2)/C(F)=C/C[C@H](C)[C@H](C)S(=O)(=O)NC(=O)c2ccc3c(c2)N(C[C@@H]2CCO[C@H]21)C[C@@]1(CCCc2cc(Cl)ccc21)CO3
- AC50 (MOLP-8): 992 nM
- Activity [9]: Non-Toxic
- Activity [10]: Toxic
- Activity [11]: Non-Toxic

- Ki [1]: 0.19 nM
- solubility thermodynamic at 72 h [2]: 539 µM (≈ 402 µg/mL)
- solubility thermodynamic at 72 h [3]: 1.2 µM (≈ 0.896 µg/mL)
- chromatographic logD [7]: 2.5
- chromatographic logD [4]: 2.7
- microsomal CLint [5]: 62 µL/min/mg
- microsomal CLint [6]: 34 µL/min/mg
Compound: C[C@@H]1[C@@H](C)C/C=C(\F)[C@H](OCCN2CCOCC2)[C@@H]2OCC[C@H]2CN2C[C@@]3(CCCc4cc(Cl)ccc43)COc3ccc(cc32)C(=O)NS1(=O)=O
- AC50 (MOLP-8): 314 nM
- Activity [9]: Non-Toxic
- Activity [10]: Non-Toxic
- Activity [11]: Non-Toxic
